Measurements: article PMC5544254 (Molecular bioSystems, 2017)

System: SMNDC1_12PC RNA (5′-UTR SMNDC1 mRNA G quadruplex)
Assay: Steady-state fluorescence spectroscopy titration, PC reporter quenching
Type: binding
Conditions: BSA titrated into SMNDC1_12PC RNA, control experiment, Supplemental Figure 1D

Substance: bovine serum albumin [BSA]
- change of steady state fluorescence of PC reporter (non-specific control): did not change
